Where two headings read alike, the source gives them in different places.
Columns and labels:
Wistar rats [1] = assay: Forced swim test (FST) in Wistar rats; type: in vivo, rat; conditions: for Minimum effective dose, forced swim test in rats (potential antidepressant properties): IP, 60 minutes before the test, Wistar rats
Description: (§1) For intraperitoneal (i.p.) administration: to the desired quantity of the solid compound in a glass beaker, required volume of sterile water for injection was added and swirled with glass bar until complete dissolution of the compound.
(§2) Animals. Male Wistar rats weighing 220-250 g were used in the test. […] All animals were kept in an environmentally controlled rooms (ambient temperature 22±2° C; relative humidity 50-60%; 12:12 light:dark cycle, lights on at 8:00). They were allowed to acclimatize with the environment for one week before commencement of the experiments. Standard laboratory food (Ssniff M-Z) and filtered water were freely available. The experiments were conducted in the light phase between 09.00 and 14.00 hours. 1 h before the start of the experiment, rats were transferred to the experimental room for acclimation.
Apparatus and procedure. […] On the first day of experiment, the animals were gently individually placed in Plexiglas cylinders (40 cm high, 18 cm in diameter) containing 15 cm of water maintained at 25° C. for 15 min. Upon removal from water, the rats were placed in a Plexiglas box for 30 min under a 60-W bulb to dry off. On the following day, the rats were placed again in the cylinder and the total duration of immobility was recorded throughout the 5-min test period. Fresh water was used for each animal.
(§3) Experimental design. The compounds were administered IP, 60 minutes before the test.
(§4) Drugs. The experimental compounds were dissolved in the distilled water. All compounds were administrated in the volume of 2 ml/kg.

Wistar rats [2] = assay: Conflict drinking test (Vogel test) in Wistar rats; type: in vivo, rat; conditions: for Minimum effective dose, conflict drinking (Vogel test) in rats (potential anxiolytic properties): IP, 60 minutes before the test, Wistar rats
Description: as §1, §2
Apparatus and procedure. […] Experimental chambers were connected to PC software by control chassis and electric shocks' generator. On the first day of the experiment, the rats were adapted to the test chambers for 10 min. […] Afterwards, they were allowed a 30-min free-drinking session in their home cages. […] Recording data started immediately after the first lick and every 20 licks rats were punished with an electric shock (0.5 mA, lasting 1 s). The impulses were released via the spout of the drinking bottles. If a rat was drinking when an impulse was released, it received a shock. The number of licks and the number of shocks received during a 5-min experimental session was recorded automatically.
as §3, §4

M1 receptors = biological target: T1, M1 receptors (Homo sapiens, UniProt P11229); assay: biochemical; conditions: read-out: % inhibition of control binding at 10^−6M, M1
T1 sequence (P11229 1-460): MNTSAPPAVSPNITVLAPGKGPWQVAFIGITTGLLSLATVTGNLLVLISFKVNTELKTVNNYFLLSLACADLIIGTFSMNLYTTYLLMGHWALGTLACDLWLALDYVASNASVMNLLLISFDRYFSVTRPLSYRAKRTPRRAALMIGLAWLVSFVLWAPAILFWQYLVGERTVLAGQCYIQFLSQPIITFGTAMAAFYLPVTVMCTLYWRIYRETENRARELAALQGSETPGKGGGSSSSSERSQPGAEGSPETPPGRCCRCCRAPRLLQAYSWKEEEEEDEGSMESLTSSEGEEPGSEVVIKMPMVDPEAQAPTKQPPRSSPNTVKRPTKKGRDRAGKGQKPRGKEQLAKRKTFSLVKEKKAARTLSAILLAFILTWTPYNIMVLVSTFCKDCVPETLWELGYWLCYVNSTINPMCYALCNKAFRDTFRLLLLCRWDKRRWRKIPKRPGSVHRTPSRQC
Description: (§5) Each compound was tested in duplicate at 10^-6 M concentration.

5-HT2C receptors = biological target: T2, 5-HT2C receptors (Homo sapiens, UniProt P28335); assay: biochemical; conditions: read-out: % inhibition of control binding at 10^−6M, 5-HT2C
T2 sequence (P28335 33-458): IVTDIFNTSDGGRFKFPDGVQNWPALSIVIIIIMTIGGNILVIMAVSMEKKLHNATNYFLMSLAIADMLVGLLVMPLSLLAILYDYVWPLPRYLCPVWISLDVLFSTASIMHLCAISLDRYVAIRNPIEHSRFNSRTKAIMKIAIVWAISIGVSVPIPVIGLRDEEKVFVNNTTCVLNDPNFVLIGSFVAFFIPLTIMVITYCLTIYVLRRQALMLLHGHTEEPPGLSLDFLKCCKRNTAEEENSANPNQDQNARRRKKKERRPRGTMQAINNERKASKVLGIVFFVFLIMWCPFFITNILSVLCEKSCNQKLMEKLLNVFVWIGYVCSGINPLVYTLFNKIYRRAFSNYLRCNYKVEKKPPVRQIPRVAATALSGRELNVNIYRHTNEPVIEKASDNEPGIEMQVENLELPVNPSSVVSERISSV
Description: as §5

D3 receptors = D3 receptors (Homo sapiens, UniProt P35462); assay: biochemical; conditions: read-out: % inhibition of control binding at 10^−6M, D3
Description: as §5

5-HT7 receptor = 5-HT7 receptor (Homo sapiens, UniProt P34969); assay: Radioligand binding, 5-HT7 ([3H]-5-CT displacement)
dopamine D2L receptor = dopamine D2L receptor (Homo sapiens, UniProt P14416); assay: Radioligand binding, D2 ([3H]-raclopride displacement)
5-HT1A receptor = biological target: T3, 5-HT1A receptor (Homo sapiens, UniProt P08908); assay: Radioligand binding, 5-HT1A ([3H]-8-OH-DPAT displacement)
T3 sequence (P08908 1-422): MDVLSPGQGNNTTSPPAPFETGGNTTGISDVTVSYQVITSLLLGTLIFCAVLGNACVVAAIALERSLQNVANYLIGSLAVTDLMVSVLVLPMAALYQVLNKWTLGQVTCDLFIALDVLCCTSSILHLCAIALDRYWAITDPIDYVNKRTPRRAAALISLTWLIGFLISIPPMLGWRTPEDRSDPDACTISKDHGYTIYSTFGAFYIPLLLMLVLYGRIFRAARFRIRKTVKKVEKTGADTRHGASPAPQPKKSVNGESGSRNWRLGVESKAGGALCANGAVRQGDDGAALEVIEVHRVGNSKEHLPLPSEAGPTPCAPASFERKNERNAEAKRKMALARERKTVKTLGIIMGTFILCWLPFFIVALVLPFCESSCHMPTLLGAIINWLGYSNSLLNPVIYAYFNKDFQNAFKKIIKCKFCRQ

Sprague-Dawley rats = assay: Novel object recognition (NOR) test in Sprague-Dawley rats, PCP-induced deficit; type: in vivo, rat
Description: Rats were allowed to acclimatize for at least 7 days before the start of the experimental procedure. During this week animals were handled for at least 3 times. Behavioral testing was carried out during the light phase of the light/dark cycle. At least 1 h before the start of the experiment, rats were transferred to the experimental room for acclimation.
Apparatus and procedure. Rats were tested in a dimly lit (25 lx) “open field” apparatus made of a dull gray plastic (66×56×30 cm). After each measurement, the floor was cleaned and dried.
The procedure lasting for 2 days consisted of the habituation to the test arena (without any objects) for 5 min. The test session comprising of two trials separated by an inter-trial interval (ITI) of 1 h was carried out on the next day. […]
Exploration time of the objects and the distance traveled were measured using the Any-maze® video tracking system. Based on exploration time (E) of two objects during T2, discrimination index (DI) was calculated according to the formula: […]

H1 receptors = H1 receptors (Homo sapiens, UniProt P35367); assay: biochemical; conditions: read-out: % inhibition of control binding at 10^−6M, H1
Sequence of H1 receptors (P35367 whole entry): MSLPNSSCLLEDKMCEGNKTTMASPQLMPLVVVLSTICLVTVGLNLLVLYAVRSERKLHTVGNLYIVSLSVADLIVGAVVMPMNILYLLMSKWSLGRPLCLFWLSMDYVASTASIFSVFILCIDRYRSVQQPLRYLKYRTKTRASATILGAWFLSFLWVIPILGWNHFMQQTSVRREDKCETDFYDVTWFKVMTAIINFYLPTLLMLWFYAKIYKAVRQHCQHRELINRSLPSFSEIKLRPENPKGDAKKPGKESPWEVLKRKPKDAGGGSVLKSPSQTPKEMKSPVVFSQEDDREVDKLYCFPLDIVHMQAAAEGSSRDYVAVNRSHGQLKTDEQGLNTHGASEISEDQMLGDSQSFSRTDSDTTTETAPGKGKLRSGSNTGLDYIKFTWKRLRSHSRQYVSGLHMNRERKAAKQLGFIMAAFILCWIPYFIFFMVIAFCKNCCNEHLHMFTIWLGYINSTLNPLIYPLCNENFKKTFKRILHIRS
Description: as §5

Sequence of 5-HT7 receptor (P34969 1-432 limits assumed): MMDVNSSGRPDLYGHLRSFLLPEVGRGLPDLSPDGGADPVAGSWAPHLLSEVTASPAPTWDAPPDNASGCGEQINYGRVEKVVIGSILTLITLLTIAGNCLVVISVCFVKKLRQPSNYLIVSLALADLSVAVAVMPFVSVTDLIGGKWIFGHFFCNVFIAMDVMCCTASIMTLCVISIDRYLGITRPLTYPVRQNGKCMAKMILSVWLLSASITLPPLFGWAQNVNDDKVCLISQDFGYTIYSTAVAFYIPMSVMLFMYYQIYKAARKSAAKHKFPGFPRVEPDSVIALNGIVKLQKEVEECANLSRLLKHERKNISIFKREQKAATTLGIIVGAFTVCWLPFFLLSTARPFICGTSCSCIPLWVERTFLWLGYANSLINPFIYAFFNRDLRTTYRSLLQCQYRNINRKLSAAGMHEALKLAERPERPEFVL
Sequence of dopamine D2L receptor (P14416 whole entry): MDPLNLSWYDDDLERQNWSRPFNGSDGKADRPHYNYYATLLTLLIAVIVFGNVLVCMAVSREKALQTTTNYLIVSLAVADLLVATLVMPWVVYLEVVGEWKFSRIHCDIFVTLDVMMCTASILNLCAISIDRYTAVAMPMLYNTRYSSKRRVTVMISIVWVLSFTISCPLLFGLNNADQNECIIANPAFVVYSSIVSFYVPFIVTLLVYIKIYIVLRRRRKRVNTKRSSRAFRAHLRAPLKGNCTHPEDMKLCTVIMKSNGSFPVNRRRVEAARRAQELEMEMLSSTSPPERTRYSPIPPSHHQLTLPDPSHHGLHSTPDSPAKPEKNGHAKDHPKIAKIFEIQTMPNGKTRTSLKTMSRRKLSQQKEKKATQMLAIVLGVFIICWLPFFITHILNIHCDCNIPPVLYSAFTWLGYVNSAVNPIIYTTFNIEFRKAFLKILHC
Sequence of D3 receptors (P35462 whole entry): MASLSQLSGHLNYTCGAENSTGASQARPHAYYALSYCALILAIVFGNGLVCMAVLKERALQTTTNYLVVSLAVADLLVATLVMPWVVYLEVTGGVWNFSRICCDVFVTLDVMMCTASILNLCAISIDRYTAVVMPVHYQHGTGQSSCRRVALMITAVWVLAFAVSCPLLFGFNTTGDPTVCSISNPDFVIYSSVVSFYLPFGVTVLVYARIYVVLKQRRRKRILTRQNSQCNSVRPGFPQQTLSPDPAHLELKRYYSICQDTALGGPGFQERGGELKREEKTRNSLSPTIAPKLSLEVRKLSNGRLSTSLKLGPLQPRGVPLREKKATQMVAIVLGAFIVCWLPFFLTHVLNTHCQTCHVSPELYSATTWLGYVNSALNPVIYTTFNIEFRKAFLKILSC

| SMILES | Minimum effective dose, forced swim test in rats (potential antidepressant properties) (Wistar rats [1]) [mg/kg] | Minimum effective dose, conflict drinking (Vogel test) in rats (potential anxiolytic properties) (Wistar rats [2]) [mg/kg] | melting point [°C] | inhibition at 1 µM (M1 receptors) [%] | inhibition at 1 µM (5-HT2C receptors) [%] | inhibition at 1 µM (D3 receptors) [%] | Ki (5-HT7 receptor; read-out: Ki 5-HT7) [nM] | Ki (dopamine D2L receptor; read-out: Ki D2, cloned human receptor in HEK293, three independent experiments, SEM ± 22%) [nM] | Ki (5-HT1A receptor; read-out: Ki 5-HT1A, cloned human receptor in HEK293, three independent experiments, SEM ± 22%) [nM] | effective dose in the forced swim test (reference compounds) (Wistar rats [1]; rats, antidepressant-like activity, imipramine increased climbing time) [mg/kg] | active dose in the conflict drinking test (Vogel test), increasing number of licks and shocks received (Wistar rats [2]; rats) [mg/kg] | dose effective against PCP-induced cognitive deficit in NOR test (Sprague-Dawley rats) [mg/kg] | Ki (5-HT7 receptor) [nM] | Ki (dopamine D2L receptor) [nM] | Ki (5-HT1A receptor) [nM] | inhibition at 1 µM (H1 receptors) [%] |
| --- | --- | --- | --- | --- | --- | --- | --- | --- | --- | --- | --- | --- | --- | --- | --- | --- |
| O=S(=O)(c1cccc(Cl)c1)n1ccc2c(N3CCNCC3)nc3ccccc3c21 [Compound 29, 1-((3-chlorophenyl)sulfonyl)-4-(piperazin-1-yl)-1H-pyrrolo[3,2-c]quinoline] | >10 | 10 | 161 to 163 | -11 | 13 | 66 | 1790 | 1340 | 773 | – | – | – | – | – | – | – |
| COc1ccc(NS(=O)(=O)c2sc3ccc(Cl)cc3c2C)cc1N1CCNCC1 [SB-271046, reference compound] | – | – | – | – | – | – | – | – | – | 10 | ≤ 10 | 1 | – | – | – | – |
| O=S(=O)(c1cccc2ccccc12)n1ccc2c(N3CCNCC3)nc3ccccc3c21 [Compound 43, 1-(naphthalen-1-ylsulfonyl)-4-(piperazin-1-yl)-1H-pyrrolo[3,2-c]quinoline] | – | – | 158 to 160 | – | – | – | – | – | – | – | – | – | 1990 | 4010 | 711 | – |
| O=S(=O)(c1cccc(Cl)c1)n1ccc2c(N[C@H]3CCNC3)nc3ccccc3c21 [Compound 6, (S)-1-((3-chlorophenyl)sulfonyl)-N-(pyrrolidin-3-yl)-1H-pyrrolo[3,2-c]quinolin-4-amine] | 10 | 3 | – | 9 | 21 | 69 | – | – | – | – | – | – | 4990 | 1010 | 2350 | – |
| O=S(=O)(c1cccc(Cl)c1)n1ccc2c(N[C@@H]3CCNC3)nc3ccccc3c21 [Compound 7, (R)-1-((3-chlorophenyl)sulfonyl)-N-(pyrrolidin-3-yl)-1H-pyrrolo[3,2-c]quinolin-4-amine] | 3 | 10 | – | -1 | 2 | 82 | – | – | – | – | – | – | 3940 | 754 | 2680 | 17 |

From patent US20170239237A1, “PYRROLOQUINOLINE DERIVATIVES AS 5-HT6 ANTAGONISTS, PREPARATION METHOD AND USE THEREOF” (Uniwersytet Jagiellonski, priority 2013, published 2017)
